Test results as given in ChEMBL document CHEMBL4130375, “Design, synthesis and biological evaluation of 4-amidobenzimidazole acridine derivatives as dual PARP and Topo inhibitors for cancer therapy” (Eur J Med Chem, 2017).
Active and inactive are the calls of the source. The calls are words filed in the database; no cut-off is given here.

How the values were obtained:
[1] = tested on: MCF7; assay: cells; conditions: Homo sapiens, MCF7, 72 h
[2] = molecular target: Poly [ADP-ribose] polymerase 1 (Homo sapiens, UniProt P09874); assay: Inhibition of PARP1 (unknown origin) assessed as reduction in biotinylated poly(ADP-ribose) incorporation on to histone protein by ELISA based colorimetric assay
Sequence of Poly [ADP-ribose] polymerase 1 (P09874 whole entry): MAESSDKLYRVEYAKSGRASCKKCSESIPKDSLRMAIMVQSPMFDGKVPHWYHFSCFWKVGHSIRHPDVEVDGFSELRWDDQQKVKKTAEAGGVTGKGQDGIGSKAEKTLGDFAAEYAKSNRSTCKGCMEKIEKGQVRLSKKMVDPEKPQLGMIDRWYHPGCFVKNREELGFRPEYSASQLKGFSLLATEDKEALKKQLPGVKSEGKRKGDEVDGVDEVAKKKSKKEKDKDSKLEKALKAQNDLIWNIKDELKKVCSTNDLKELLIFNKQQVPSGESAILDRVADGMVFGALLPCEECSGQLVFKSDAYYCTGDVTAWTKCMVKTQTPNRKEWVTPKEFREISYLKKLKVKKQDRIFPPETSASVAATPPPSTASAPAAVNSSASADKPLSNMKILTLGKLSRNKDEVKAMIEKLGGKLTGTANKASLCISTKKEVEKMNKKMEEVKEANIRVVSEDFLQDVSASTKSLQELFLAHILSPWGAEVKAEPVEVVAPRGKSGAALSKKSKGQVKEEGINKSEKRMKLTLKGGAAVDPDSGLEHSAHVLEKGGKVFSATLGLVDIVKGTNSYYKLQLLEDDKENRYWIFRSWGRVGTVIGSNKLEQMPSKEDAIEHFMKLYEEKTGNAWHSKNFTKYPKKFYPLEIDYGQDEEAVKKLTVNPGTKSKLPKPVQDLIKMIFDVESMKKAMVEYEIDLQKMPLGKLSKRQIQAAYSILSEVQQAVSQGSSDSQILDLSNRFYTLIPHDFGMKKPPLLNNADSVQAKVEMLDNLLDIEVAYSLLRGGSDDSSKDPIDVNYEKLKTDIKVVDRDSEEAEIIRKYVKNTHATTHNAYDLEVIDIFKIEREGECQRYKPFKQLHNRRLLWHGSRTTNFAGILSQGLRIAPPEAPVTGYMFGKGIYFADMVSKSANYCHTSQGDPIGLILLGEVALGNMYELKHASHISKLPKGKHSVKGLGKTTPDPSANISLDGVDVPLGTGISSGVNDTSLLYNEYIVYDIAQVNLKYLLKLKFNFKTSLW

[3] = molecular target: DNA topoisomerase 2-alpha (Homo sapiens) (UniProt P11388); assay: Inhibition of human topoisomerase-2 at 100 uM using supercoiled pBR322 DNA as substrate after 10 to 15 mins by ethidium bromide staining based electrophoresis method
Sequence of DNA topoisomerase 2-alpha (Homo sapiens) (P11388 whole entry): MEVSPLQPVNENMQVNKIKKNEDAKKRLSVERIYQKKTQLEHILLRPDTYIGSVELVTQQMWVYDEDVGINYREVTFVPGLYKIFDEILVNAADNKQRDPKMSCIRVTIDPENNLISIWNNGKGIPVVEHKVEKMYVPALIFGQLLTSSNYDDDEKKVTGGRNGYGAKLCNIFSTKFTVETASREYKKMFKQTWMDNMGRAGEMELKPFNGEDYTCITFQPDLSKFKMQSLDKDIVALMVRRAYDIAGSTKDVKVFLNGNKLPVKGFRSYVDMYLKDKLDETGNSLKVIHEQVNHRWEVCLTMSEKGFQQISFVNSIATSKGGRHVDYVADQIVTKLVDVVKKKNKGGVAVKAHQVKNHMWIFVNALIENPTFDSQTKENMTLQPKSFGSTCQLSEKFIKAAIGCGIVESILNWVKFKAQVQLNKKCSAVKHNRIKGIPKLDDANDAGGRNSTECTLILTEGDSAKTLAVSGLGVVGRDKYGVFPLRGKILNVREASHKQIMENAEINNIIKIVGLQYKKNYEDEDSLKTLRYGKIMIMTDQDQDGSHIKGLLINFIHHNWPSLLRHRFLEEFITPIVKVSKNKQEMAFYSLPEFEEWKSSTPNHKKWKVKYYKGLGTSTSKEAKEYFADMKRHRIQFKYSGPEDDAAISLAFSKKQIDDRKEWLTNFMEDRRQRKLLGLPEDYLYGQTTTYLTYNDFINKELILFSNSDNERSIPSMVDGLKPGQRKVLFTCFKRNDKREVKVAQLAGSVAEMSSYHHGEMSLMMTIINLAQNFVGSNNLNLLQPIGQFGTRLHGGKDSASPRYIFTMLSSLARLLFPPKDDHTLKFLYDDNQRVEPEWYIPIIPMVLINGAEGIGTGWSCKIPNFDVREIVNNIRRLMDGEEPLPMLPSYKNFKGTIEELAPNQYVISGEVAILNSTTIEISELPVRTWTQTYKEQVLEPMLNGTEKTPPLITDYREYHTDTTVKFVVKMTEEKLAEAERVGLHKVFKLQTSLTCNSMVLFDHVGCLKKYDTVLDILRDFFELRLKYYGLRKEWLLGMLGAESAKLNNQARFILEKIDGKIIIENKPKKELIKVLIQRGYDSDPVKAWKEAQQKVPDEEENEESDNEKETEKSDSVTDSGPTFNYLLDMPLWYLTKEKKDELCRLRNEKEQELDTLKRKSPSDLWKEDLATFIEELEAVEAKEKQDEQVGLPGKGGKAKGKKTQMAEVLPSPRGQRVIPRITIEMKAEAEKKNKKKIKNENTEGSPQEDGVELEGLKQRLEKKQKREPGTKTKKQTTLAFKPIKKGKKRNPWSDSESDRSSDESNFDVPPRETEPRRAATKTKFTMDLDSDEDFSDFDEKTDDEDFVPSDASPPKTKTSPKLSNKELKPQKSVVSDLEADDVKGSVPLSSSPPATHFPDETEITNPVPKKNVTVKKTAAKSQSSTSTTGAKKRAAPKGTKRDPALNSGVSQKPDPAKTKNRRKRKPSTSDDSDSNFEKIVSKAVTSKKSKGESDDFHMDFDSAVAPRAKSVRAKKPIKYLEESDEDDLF

[4] = tested on: HCT-116; assay: Antiproliferative activity against human HCT116 cells expressing topoisomerase-1 after 72 hrs by MTT assay; format: functional, cell-based; conditions: HCT-116, 72 h
[5] = tested on: HCC1937; assay: Antiproliferative activity against human HCC1937 cells harboring BRCA1 mutant after 72 hrs by MTT assay; format: functional, cell-based; conditions: HCC1937, 72 h

Row | SMILES | IC50 [1] [µM] | IC50 [2] [µM] | inhibition [3] | IC50 [4] [µM] | IC50 [5] [µM]
1 | NC(=O)c1cccc2[nH]c(-c3cccc(Nc4c5ccccc5nc5ccccc45)c3)nc12 | 36.1 | 1.39 | – | – | –
2 | NC(=O)c1cccc2[nH]c(-c3cccc(N)c3)nc12 | > 50 | 0.03 | – | – | –
3 | NC(=O)c1cccc2nc(-c3ccc(N)cc3)[nH]c12 | > 50 | 0.03 | – | – | –
4 | COc1ccc2nc3ccccc3c(Nc3cccc(-c4nc5c(C(N)=O)cccc5[nH]4)c3)c2c1 | 45.3 | 1.14 | Active | – | –
5 | COc1ccc2nc3ccccc3c(Nc3ccccc3-c3nc4c(C(N)=O)cccc4[nH]3)c2c1 | 21.8 | 1.7 | Active | – | –
6 | COc1ccc2nc3ccccc3c(Nc3ccc(-c4nc5c(C(N)=O)cccc5[nH]4)cc3)c2c1 | 38.2 | 0.25 | Active | – | –
7 | NC(=O)c1cccc2[nH]c(-c3ccc(Nc4c5ccccc5nc5ccccc45)cc3)nc12 | 12 | 0.09 | Active | – | –
8 | Cc1ccc2nc3ccccc3c(Nc3ccc(-c4nc5c(C(N)=O)cccc5[nH]4)cc3)c2c1 | 39.3 | 0.1 | Active | – | –
9 | Cc1cccc2c(Nc3ccc(-c4nc5c(C(N)=O)cccc5[nH]4)cc3)c3ccccc3nc12 | 39.1 | 0.14 | Active | – | –
10 | NC(=O)c1cccc2[nH]c(-c3ccccc3Nc3c4ccccc4nc4ccccc34)nc12 | > 50 | 1.99 | Active | – | –
11 | CCCCc1ccc2nc3ccccc3c(Nc3cccc(-c4nc5c(C(N)=O)cccc5[nH]4)c3)c2c1 | > 50 | 0.32 | Active | – | –
12 | CCCCc1ccc2nc3ccccc3c(Nc3ccc(-c4nc5c(C(N)=O)cccc5[nH]4)cc3)c2c1 | > 50 | 0.13 | Active | – | –
13 | NC(=O)c1cccc2[nH]c(-c3ccccc3N)nc12 | > 50 | > 50 | – | – | –
14 | COc1cccc2c(Nc3cccc(-c4nc5c(C(N)=O)cccc5[nH]4)c3)c3ccccc3nc12 | 25.8 | 0.97 | Active | – | –
15 | COc1cc(NS(C)(=O)=O)ccc1Nc1c2ccccc2nc2ccccc12 [AMSACRINE] | 8.7 | – | – | 3.89 | 7.85
16 | COc1cccc2c(Nc3ccc(-c4nc5c(C(N)=O)cccc5[nH]4)cc3)c3ccccc3nc12 | 13.2 | 0.19 | Active | – | –
17 | O=C(c1cc(Cc2n[nH]c(=O)c3ccccc23)ccc1F)N1CCN(C(=O)C2CC2)CC1 [OLAPARIB] | 36.2 | – | – | 15.1 | 4.97
18 | c1ccc2[nH]c(-c3ccc(Nc4c5ccccc5nc5ccccc45)cc3)nc2c1 | 26.1 | – | – | – | –
19 | Cc1ccc2nc3ccccc3c(Nc3cccc(-c4nc5c(C(N)=O)cccc5[nH]4)c3)c2c1 | 29.6 | 0.51 | Active | – | –
